Measurements reported in PubChem BioAssay (NCI).
Several values for one entry are separate records, joined by “and”; a condition that tells them apart may be missing. Equal values may be shown once.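 Following 48 hours of exposure in 96-well plates, responses at five concentrations were used to interpolate endpoints linearly. Here, GI50 denotes the concentration required for 50% inhibition of growth. Definition used: TGI = concentration required for complete inhibition of growth.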 Where a SMILES comes first, the peptide text is derived from it. [ ]: non-standard residue; d: D form. ξ: configuration not given here. Pentanoyl(2-O,4-OH,5-Cl) = O=C(O)C(O)CC(O)CCl; Ile(3ξ) = CCC(C)[C@H](N)C(=O)O; NMeV = CN[C@H](C(=O)O)C(C)C; NMeA = CN[C@@H](C)C(=O)O; βAla = NCCC(=O)O

Tests used:
Assay in all cases: inhibition of tumour cell growth, NCI panel, 48 h
[1] = tested on: OVCAR-5 ovarian
[2] = tested on: MDA-MB-435
[3] = tested on: KM12 colon
[4] = tested on: MCF7 breast
[5] = tested on: OVCAR-3 ovarian
[6] = tested on: 786-0 renal
[7] = tested on: RPMI-8226 leukemia
[8] = tested on: NCI-H460 lung
[9] = tested on: OVCAR-8 ovarian
[10] = tested on: SF-268 CNS

Compound	GI50 [1]	TGI [1]	GI50 [2]	TGI [2]	GI50 [3]	TGI [3]	GI50 [4]	TGI [4]	GI50 [5]	TGI [5]	GI50 [6]	TGI [6]	GI50 [7]	TGI [7]	GI50 [8]	TGI [8]	GI50 [9]	TGI [9]	GI50 [10]	TGI [10]
CCN(Cc1ccccc1)c1ccc(/C=C2\COc3ccccc3C2=O)cc1	> 1000 µM	> 1000 µM	47 µM	458 µM	376 µM	> 1000 µM	69.4 µM	> 1000 µM	288 µM	> 1000 µM	> 1000 µM	> 1000 µM	146 µM	> 1000 µM	> 1000 µM	> 1000 µM	> 1000 µM	> 1000 µM	> 1000 µM	> 1000 µM
CCC(C)[C@@H]1NC(=O)[C@@H]2CCCN2C(=O)C(CC(O)CCl)OC(=O)CCNC(=O)[C@H](C)N(C)C(=O)[C@H](C(C)C)N(C)C1=O (some centres undefined) (cyclo([Ile(3ξ)][NMeV][NMeA][βAla][Pentanoyl(2-O,4-OH,5-Cl)]P))		> 100 µM		> 100 µM		> 100 µM		> 100 µM		> 100 µM		> 86.2 µM		> 100 µM		> 100 µM		> 100 µM		> 100 µM
Cc1ccc(NC(=O)c2ccoc2)cc1-c1ccc(C(=O)NCC2CC2)cc1	> 25 µM	> 25 µM	> 25 µM	> 25 µM	> 25 µM	> 25 µM	> 16.1 µM	> 25 µM	> 17.9 µM	> 25 µM	> 25 µM	> 25 µM	> 16.2 µM	> 25 µM	> 24 µM	> 25 µM	> 25 µM	> 25 µM	> 25 µM	> 25 µM
CC(C)Cn1cnc2c(N)nc3ccccc3c21	65.4 µM	> 100 µM	48.9 µM	> 100 µM	56.6 µM	> 100 µM	29.4 µM	> 100 µM	> 92.9 µM	> 100 µM	25.2 µM	> 87.3 µM	5.5 µM	> 48.3 µM	23.1 µM	> 100 µM	67.5 µM	> 100 µM	61.3 µM	> 100 µM
O=C(O)c1c2c(c(O)c3c1CN(C1CCCCC1)CO3)OCN(C1CCCCC1)C2		> 100 µM		> 100 µM		> 100 µM		39.2 µM		> 100 µM		> 100 µM		> 100 µM		35.1 µM		> 100 µM		> 100 µM
CCCCCCCCCCCC(c1ccccc1)[N+](C)(C)C (centres undefined)	0.998 µM	4.97 µM	1.35 µM	3.05 µM	0.511 µM	1.78 µM	1.44 µM	3.19 µM	0.815 µM	2.35 µM	1.63 µM	3.55 µM	0.462 µM	1.92 µM	1.28 µM	3.2 µM	1.18 µM	3.06 µM	1.26 µM	2.61 µM
CN1CCC2(CC1)C(=O)Nc1cc(NC(=O)c3ccc4c(c3)C[C@@H]3C(C)(C)[C@H](O)[C@H](F)C[C@@]3(C)O4)ccc12	12.3 µM	> 100 µM	1.31 µM	13 µM	1.38 µM	17.7 µM	0.0925 µM	21.4 µM	18.5 µM	66.8 µM	0.249 µM	14.9 µM	0.0272 µM	10.8 µM	0.684 µM	25.4 µM	26.6 µM	> 100 µM	6.68 µM	31.9 µM
O=C(Nc1ccccc1/C=C/c1n[nH]c2ccccc12)c1ccccc1	1.92 µM	12.9 µM	1.97 µM	13.5 µM	0.0648 µM	1.65 µM	0.505 µM	13.2 µM	5.26 µM	16.5 µM	12.6 µM	26.7 µM	3.07 µM	12.8 µM	2.15 µM	11.2 µM	3.95 µM	14.6 µM	3.75 µM	17.3 µM
CCOC(=O)c1sc2nc(=S)[nH]c(NC(N)=S)c2c1C	26.1 µM	75.7 µM	30.5 µM	70.3 µM	23.5 µM	52.7 µM	16.5 µM	37.2 µM	26.4 µM	56.2 µM	21.5 µM	45.5 µM	18.4 µM	49.9 µM	23.2 µM	61 µM	25.4 µM	63.3 µM	17.8 µM	42.7 µM
O=C(O)C1CCCN1 (centres undefined)		> 100 µM		> 100 µM		> 100 µM		> 100 µM		> 100 µM		> 100 µM		> 100 µM		> 100 µM		> 100 µM		> 100 µM
CC[C@@H]1C(=O)N(C)c2cnc(Nc3ccc(C(=O)NC4CCC(N5CCN(CC6CC6)CC5)CC4)cc3OC)nc2N1C(C)C (some centres undefined)	0.0146 µM and 0.0502 µM	> 10 µM and 16.9 µM	< 0.01 µM	0.0134 µM	0.0069 µM and < 0.01 µM	> 10 µM and 8.15 µM	0.00507 µM and < 0.01 µM	2.01 µM and 2.62 µM	0.013 µM and < 0.0161 µM		0.0614 µM and 0.0721 µM	> 3.29 µM and 1.28 µM	0.0382 µM and 0.0558 µM	1.62 µM and 1.89 µM	0.0123 µM and 0.0297 µM	> 10 µM and 1.86 µM	0.0242 µM and 0.033 µM	> 10 µM and 1.65 µM	0.0586 µM and 0.0485 µM	> 10 µM and 7.8 µM
C[C@]12CC[C@H]3[C@@H](CCC4=CC(=O)CC[C@@]43C)[C@]1(O)CC[C@]2(O)C(=O)CO		> 100 µM		> 100 µM		> 100 µM		> 100 µM		> 100 µM		> 100 µM		> 100 µM		> 100 µM		> 100 µM		> 100 µM
COc1cc(-c2csc(NC(=O)Nc3ccc(Cl)cc3)n2)cc(OC)c1OC	3.56 µM	21 µM	2.17 µM	5.88 µM	2.57 µM	7.9 µM	2.53 µM	10.7 µM	2.54 µM	7.23 µM	2.35 µM	7.83 µM	2.14 µM	5.78 µM	3.32 µM	> 48.4 µM	2.46 µM	5.85 µM	3.28 µM	20.8 µM
